Laboratory results reported in patent US12269813B2, “Crystalline form of 1-(1-oxo-1,2-dihydroisoquinolin-5-yl)-5-(trifluoromethyl)-N-(2-(trifluoromethyl)pyridin-4-yl)-1H-pyrazole-4-carboxamide monohydrate” (Janssen Pharmaceutica NV, priority 2019, dated 2025).
Entries after “also recorded” stand apart in the source; their conditions may differ.

Tests used:
[1] = Moisture sorption analysis (dynamic vapor sorption, DVS); type: physicochemical; details: for hygroscopic behaviour: DVS, 0 to 95% RH at 25° C.; for loss of hydration water at low relative humidity: RH of 20% or less
Protocol: The moisture sorption analysis (DVS) was performed using a Surface Measurement Systems Advantage-1 dynamic vapor sorption apparatus. The moisture profile was evaluated by monitoring vapor adsorption/desorption over the range of 0 to 95% relative humidity at 25° C. The moisture profile consisted of 2 cycles of vapor adsorption/desorption.

[2] = Physical stability study with respect to water loss or uptake (water content by coulometric Karl Fischer); type: physicochemical
Protocol: The physical stability of Compound A monohydrate, Form III with respect to water loss or uptake was tested.
For the initial study, 0.5 g samples of monohydrate Form III were placed in double antistatic colourless LDPE bags and sealed.
For the long-term study (stability after 1 month and 3 months), 1.5 g samples of monohydrate Form III were placed in double antistatic colourless LDPE bags and sealed. The samples were stored at 30±2° C./75±5% RH and 40±2° C./75±5% RH in cardboard drums.
For the photostability study, 1.5 g of monohydrate Form III was placed into a petri dish and spread into a layer of no more than 3 mm thick. The petri dish was covered with quartz coverslips and sealed with parafilm. The photostability testing was carried out in line with ICH Q1B option 2 (ICH Harmonised Tripartite Guideline, Stability testing: Photostability testing of new drug substances and products, Q1B, Step 4 version, 6 Nov. 1996). Photostability samples were stored under separate lamps emitting visible and UV-A light, such that the total exposure was not less than 1.2 million lux hours and 200 Watt hours/m^2, respectively.
The water content of each of the samples was determined using a vaporized coulometric Karl Fischer method, in accordance with the US Pharmacopeia (USP <921> method IC; most recently appeared in Pharmacopeial Forum: Volume No. 38(1); Page information USP42/NF37-7092) and European Pharmacopeia 2.5.32 (Edition 10.0).

hygroscopic behaviour [1]	loss of hydration water at low relative humidity [1]	moisture adsorbed ([1]; humidity range 0-20% RH)	moisture adsorption and desorption ([1]; humidity range 20-95% RH, slow and reversible) [%]	weight loss during the initial drying step (DVS change in mass plot) ([1]; initial drying step) [%]	hygroscopic behaviour ([1]; monohydrate)	water uptake ([1]; at 80% relative humidity)	Water content (%) ([2]; 30° C./75% RH, 1 month)	Water content (%) ([2]; 30° C./75% RH, 3 months)	Water content (%) ([2]; 40° C./75% RH, 1 month)	Water content (%) ([2]; 40° C./75% RH, 3 months)	Water content (%) ([2]; Initial)	hygroscopic character concluded from the stability study ([2]; Table 3 storage conditions)	Water content (%) ([2]; photostability, 1 × ICH option 2)	Structure (SMILES)	solid-state form change after the DVS test (XRPD pattern and IR spectrum) ([1]; fraction obtained after the DVS test vs starting material)	loss of hydration water at low relative humidity ([1]; monohydrate)
hygroscopic	lost at RH of 20% and less	4.1-4.2%	1.8	~2.7										O=C(Nc1ccnc(C(F)(F)F)c1)c1cnn(-c2cccc3c(=O)[nH]ccc23)c1C(F)(F)F [Form I, 1-(1-oxo-1,2-dihydroisoquinolin-5-yl)-5-(trifluoromethyl)-N-[2-(trifluoromethyl)pyridin-4-yl]-1H-pyrazole-4-carboxamide (Compound A) hydrate, Form I]	No indication of a solid-state form change	
					non-hygroscopic	less than 0.2%	3.3	3.8	3.3	3.2	3.4	non-hygroscopic	3.4	O=C(Nc1ccnc(C(F)(F)F)c1)c1cnn(-c2cccc3c(=O)[nH]ccc23)c1C(F)(F)F [Form III, 1-(1-oxo-1,2 dihydroisoquinolin-5-yl)-5-(trifluoromethyl)-N-(2-(trifluoromethyl)pyridin-4-yl)-1H-pyrazole-4-carboxamide (Compound A) monohydrate]		does not lose water; also recorded: avoids loss of water
